Reference: PubChem BioAssay AID256 (DTP/NCI, 2004)
Toxic doses and inconclusive results are not listed. Rule for the calls: active = survival T/C of 150% or more; inactive = T/C below 125% in these data.

Tested on: CD2F1 mice, L1210 leukemia ip, survival T/C
Test: NCI In Vivo Anticancer Drug Screen. Data for tumor model L1210 Leukemia (intraperitoneal) in CD2F1 (CDF1) mice
Details: higher = longer survival
Outline: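 Activity against a transplanted murine tumor was judged by comparing the compound group with a vehicle group. The outcome in the treated animals was divided by that in the controls.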

[1] = endpoint: mean survival time, dose: 100.0 mg/kg/injection, schedule: Q04DX003 (ip), vehicle: saline
[2] = endpoint: mean survival time, dose: 100.0 mg/kg/injection, schedule: Q01DX009 (ip), vehicle: saline with Tween-80
[3] = endpoint: mean survival time, dose: 200.0 mg/kg/injection, schedule: Q01DX009 (ip), vehicle: saline with Tween-80
[4] = endpoint: mean survival time, dose: 100.0 mg/kg/injection, schedule: Q04DX003 (ip), vehicle: saline with Tween-80
[5] = endpoint: mean survival time, dose: 200.0 mg/kg/injection, schedule: Q04DX003 (ip), vehicle: saline with Tween-80
[6] = endpoint: mean survival time, dose: 100.0 mg/kg/injection, schedule: Q01DX001 (ip), vehicle: saline with Tween-80
[7] = endpoint: mean survival time, dose: 400.0 mg/kg/injection, schedule: Q01DX001 (ip), vehicle: saline with Tween-80

Measured: T/C

NC(N)=NCCCCC(N)C(=O)O (stereo unspecified)
inactive: endpoint: mean survival time, dose: 100.0 mg/kg/injection, schedule: Q01DX009 (ip), vehicle: acetone 101 % of control | endpoint: mean survival time, dose: 100.0 mg/kg/injection, schedule: Q01DX009 (ip), vehicle: saline 95 % of control | [1] 97 % of control | endpoint: mean survival time, dose: 200.0 mg/kg/injection, schedule: Q01DX009 (ip), vehicle: acetone 96 % of control | endpoint: mean survival time, dose: 200.0 mg/kg/injection, schedule: Q01DX009 (ip), vehicle: saline 95 % of control | endpoint: mean survival time, dose: 200.0 mg/kg/injection, schedule: Q04DX003 (ip), vehicle: saline 100 % of control | endpoint: mean survival time, dose: 400.0 mg/kg/injection, schedule: Q01DX009 (ip), vehicle: acetone 98 % of control | endpoint: mean survival time, dose: 400.0 mg/kg/injection, schedule: Q01DX009 (ip), vehicle: saline 95 % of control | endpoint: mean survival time, dose: 400.0 mg/kg/injection, schedule: Q04DX003 (ip), vehicle: saline 103 % of control

CCOC(=O)N1C(=O)C2C3CCC(O3)C2C1=O (stereo unspecified)
inactive: endpoint: mean survival time, dose: 25.0 mg/kg/injection, schedule: Q04DX002 (ip), vehicle: saline with Tween-80 104 % of control | endpoint: mean survival time, dose: 50.0 mg/kg/injection, schedule: Q04DX002 (ip), vehicle: saline with Tween-80 90 % of control | endpoint: mean survival time, dose: 100.0 mg/kg/injection, schedule: Q04DX002 (ip), vehicle: saline with Tween-80 109 % of control

CC(=O)Nc1cccc2ccccc12
inactive: [2] 95 % of control | [3] 97 % of control

ClCC1(CCl)COC(c2ccccc2)OC1
inactive: [2] 95 % of control | [3] 95 % of control | endpoint: mean survival time, dose: 400.0 mg/kg/injection, schedule: Q01DX009 (ip), vehicle: saline with Tween-80 94 % of control

CC(c1ccccc1)c1ccc(O)cc1 (stereo unspecified)
inactive: [4] 103 % of control | [5] 93 % of control | endpoint: mean survival time, dose: 400.0 mg/kg/injection, schedule: Q04DX003 (ip), vehicle: saline with Tween-80 91 % of control

CCOC(=O)c1sc(C(=O)OCC)c(-c2ccccc2)c1-c1ccccc1
inactive: [6] 108 % of control | endpoint: mean survival time, dose: 200.0 mg/kg/injection, schedule: Q01DX001 (ip), vehicle: saline with Tween-80 93 % of control | [7] 96 % of control

OC(c1ccccc1)(c1ccccc1)c1cc2ccccc2[nH]1
inactive: [6] 89 % of control | [7] 89 % of control

O=C(O)c1ccc(Cl)c(N=C/C=C/c2ccccc2)c1
inactive: endpoint: mean survival time, dose: 75.0 mg/kg/injection, schedule: Q04DX003 (ip), vehicle: saline 97 % of control | endpoint: mean survival time, dose: 150.0 mg/kg/injection, schedule: Q04DX003 (ip), vehicle: saline 100 % of control | endpoint: mean survival time, dose: 300.0 mg/kg/injection, schedule: Q04DX003 (ip), vehicle: saline 100 % of control

O=C(O)c1cc2c(Cl)cccc2[nH]1
inactive: endpoint: mean survival time, dose: 25.0 mg/kg/injection, schedule: Q01DX009 (ip), vehicle: saline with Tween-80 109 % of control | endpoint: mean survival time, dose: 50.0 mg/kg/injection, schedule: Q01DX009 (ip), vehicle: saline with Tween-80 98 % of control | [2] 94 % of control | [4] 106 % of control

Nc1c(C(=O)O)ncn1C1OC(CO)C(O)C1O (stereo unspecified)
inactive: endpoint: median survival time, dose: 7.88 mg/kg/injection, schedule: Q01DX005 (ip), vehicle: saline 101 % of control | endpoint: median survival time, dose: 15.75 mg/kg/injection, schedule: Q01DX005 (ip), vehicle: saline 104 % of control | endpoint: median survival time, dose: 31.5 mg/kg/injection, schedule: Q01DX005 (ip), vehicle: saline 104 % of control | endpoint: median survival time, dose: 63.0 mg/kg/injection, schedule: Q01DX005 (ip), vehicle: saline 103 % of control | endpoint: median survival time, dose: 126.0 mg/kg/injection, schedule: Q01DX005 (ip), vehicle: saline 92 % of control

Cc1cc2oc(=O)cc(N3CCOCC3)c2c(=O)o1
inactive: [4] 110 % of control | [5] 109 % of control

O=C(CC(O)(C(F)(F)F)C(F)(F)F)c1ccc(Br)cc1
inactive: endpoint: mean survival time, dose: 100.0 mg/kg/injection, schedule: Q01DX009 (ip), vehicle: other 106 % of control | endpoint: mean survival time, dose: 200.0 mg/kg/injection, schedule: Q01DX009 (ip), vehicle: other 100 % of control | endpoint: mean survival time, dose: 400.0 mg/kg/injection, schedule: Q01DX009 (ip), vehicle: other 95 % of control

[Cl][Ga]([Cl])[Cl]
inactive: endpoint: mean survival time, dose: 50.0 mg/kg/injection, schedule: Q04DX003 (ip), vehicle: saline 96 % of control | endpoint: mean survival time, dose: 100.0 mg/kg/injection, schedule: Q01DX001 (ip), vehicle: saline 92 % of control | [1] 108 % of control | endpoint: mean survival time, dose: 200.0 mg/kg/injection, schedule: Q01DX001 (ip), vehicle: saline 95 % of control
